Values of other authors as cited in US20240226016A1, “STARCH BASED PRINTABLE MATERIALS” (ROQUETTE FRERES, priority 2021, published 2024).

Structure (SMILES): Cn1c(=O)c2c(ncn2CC(O)CO)n(C)c1=O (stereo not shown) [diprophylline]
- solubility in water (class): freely soluble in water
